Source: patent publication US7241753B2, “Method of treatment of prostate cancer” (priority 2000, dated 2007)
Where two headings read alike, the source gives them in different places.

How the values were obtained:
[1] = test system: Dunning AT-1 hormone-refractory prostate cancer tumor; experiment: Experiment 1: Dunning AT-1 tumor transplanted subcutaneously in rats, tumors about 17 mm at start of treatment; assay type: in vivo, Copenhagen-Fisher male rat
Excerpt: (§1) The Dunning prostate cancer cell-line, AT-1, is a completely hormone-refractory tumor. It lacks measurable quantities of receptors for androgens as well as estrogens. As a result, the clinical behavior of this tumor is not influenced by the presence or absence of sex steroids. The doubling time of the tumor is 2.5 days, which makes it one of the most […] of all hormone-refractory Dunning tumors. It has a low (less than 5%) tendency for metastasis. The Dunning tumors are suitable for evaluating immunologic experiments with prostate cancer as they grow in immunocompetent animals.
(§2) Biopsies from excised tumors where investigated microscopically using the TUNEL-technique. Tumor biopsies were investigated with immuno-cytochemistry and antibodies for macrophages and T-lymphocytes.
In this experiment Dunning AT-1 tumor was passed through two Copenhagen-Fisher male rats and then transplanted in a single piece, approximately 10 mm^3, which was placed subcutaneously on a third Copenhagen-Fisher male rat's dorsal side. Tumors were allowed to grow to approximately 17 mm in diameter before treatment started. Four groups of six rats each were used.
Freund's complete adjuvant is used to potentiate immune reactivity and to trigger a T-cell response.
Group 3 animals received only complete Freund's adjuvant, 0.1 mL intra-tumorally.
(§3) Group 4 animals served as tumor-bearing controls.
Tumors were measured by slide caliper at the onset of experiment. This was repeated at the end of experiment when animals were sacrificed, tumors excised, and tumor weight was noted.

[2] = test system: Dunning AT-1 hormone-refractory prostate cancer tumor
Excerpt: as §1, §2
In the second experiment, rats were treated as in experiment 1, but tumor size was not allowed to exceed 10 mm in diameter. This experiment was made to further evaluate the influence of tumor size on the outcome of treatment.
Animals were divided in four groups:
as §3
After animals had been sacrificed, freshly frozen tumor samples were examined for apoptosis using the TUNEL technique.

myeloid cell line = settings: in vitro; cited from earlier work
breast cancer cell lines = settings: in vitro; cited from earlier work
[3] = versus control, end of experiment 1

Structure (SMILES) | mean tumor weight ([1]; end of experiment 1) [g] | median tumor weight ([1]; end of experiment 1) [g] | Tumor Diameter (mm) ([1]; end of experiment 1 (sacrifice after 3 weeks)) | Decrease in Tumor Size (mm) [1, 3] [mm] | Percent Reduction [1, 3] [%] | mean tumor weight ([2]; single injection of 80 mg βAED, control 5.8 g) [g] | tumor growth observed macroscopically ([2]; single injection, αAED animals sacrificed after 96 hours) | apoptotic effect (myeloid cell line) | time for which tumor growth was arrested following treatment ([2]; single injection of 10 mg αAED) | apoptotic effect (breast cancer cell lines)
C[C@]12CC[C@H]3[C@@H](CC=C4C[C@@H](O)CC[C@@]43C)[C@@H]1CC[C@@H]2O [βAED, Δ5-androstene-3-β, 17β-diol] | 11.6 | 10 | 11.6 | 7.6 | 39.58 | 2.9 | clear retardation of tumor growth | – | – | –
C[C@]12CC[C@H]3[C@@H](CC=C4C[C@@H](O)CC[C@@]43C)[C@@H]1CC[C@H]2O [αAED, Δ5-androstene-3-β, 17α-diol] | – | – | – | – | – | – | – | apoptotic effect | at least 96 hours | apoptotic effect
